Source: PMC6541611, “The UbiX flavin prenyltransferase reaction mechanism resembles class I terpene cyclase chemistry” (Nature Communications, 2019)
Like-named read-outs stand apart in the source and are kept apart here.

Legend:
AnUbiX [1] = target: T1, AnUbiX (Aspergillus niger, UniProt A3F715); test: UV-Vis single turnover; assay type: biochemical
T1 construct: gene PAD1
T1 sequence (A3F715 1-227): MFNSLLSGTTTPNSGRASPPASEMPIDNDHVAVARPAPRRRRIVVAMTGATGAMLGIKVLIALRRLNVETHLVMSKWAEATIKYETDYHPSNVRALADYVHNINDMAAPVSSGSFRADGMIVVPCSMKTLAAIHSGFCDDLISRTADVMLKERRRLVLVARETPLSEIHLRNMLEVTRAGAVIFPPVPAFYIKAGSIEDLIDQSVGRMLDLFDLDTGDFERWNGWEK

EcUbiX = target: T2, EcUbiX (Escherichia coli, UniProt P0AG03); test: UV-Vis single turnover; assay type: biochemical
T2 construct: gene ubiX
T2 sequence (P0AG03 1-189): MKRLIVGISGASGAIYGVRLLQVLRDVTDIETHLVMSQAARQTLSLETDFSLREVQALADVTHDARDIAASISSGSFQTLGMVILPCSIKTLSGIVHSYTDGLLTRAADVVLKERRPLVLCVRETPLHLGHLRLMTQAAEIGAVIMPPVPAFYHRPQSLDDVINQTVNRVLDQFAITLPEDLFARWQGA

AnUbiX [2] = target: T1, AnUbiX; test: crystal structure; assay type: binding

CC(C)=CCOP(=O)(O)O [DMAP]
UV-Vis single turnover (AnUbiX [1]): Crucially, DMAP incubation does affect the resulting FMN spectrum
UV-Vis single turnover (EcUbiX): AnUbiX and EcUbiX appear to catalyse the prenyltransferase step with DMAP

CC(C)=CCOP(=O)(O)OP(=O)(O)O [DMAPP]
UV-Vis single turnover (EcUbiX; 2 mM DMAPP, FMNH2, pH 8, prFMN formed): is only able to catalyse DMAPP-specific prFMNH2 formation under the conditions tested
crystal structure (AnUbiX [2]; co-purified, no exogenous DMAPP added, with oxidised FMN, pH 6.2): electron density directly located above the oxidised FMN that corresponds to a bound DMAPP

Cc1cc2nc3c(=O)[nH]c(=O)nc-3n(C[C@H](O)[C@H](O)[C@H](O)COP(=O)(O)O)c2cc1C [FMN]
crystal structure (AnUbiX [2]): The crystal structure of AnUbiX in complex with FMN and DMAPP
